Data from patent US8916573B2, “Quinazoline-2,4-dione derivatives” (Actelion Pharmaceuticals Ltd., priority 2011, dated 2014).
≈ marks a conversion by molar mass, not a printed value.

Test system: S. aureus 29213
Test: Bacterial growth minimal inhibitory concentrations (microdilution, cation-adjusted Mueller-Hinton Broth, CLSI M7-A7)
Assay type: cell-based
Conditions: Staphylococcus aureus, 29213; microdilution in cation-adjusted Mueller-Hinton Broth
Protocol: Bacterial Growth Minimal Inhibitory Concentrations: Minimal inhibitory concentrations (MICs; mg/l) were determined in cation-adjusted MuellerHinton Broth by a microdilution method following the description given in “Methods for Dilution Antimicrobial Susceptibility Tests for Bacteria that Grow Aerobically”, Approved standard, 7th ed., Clinical and Laboratory Standards Institute (CLSI) Document M7-A7, Wayne, Pa., USA, 2006. Typical antibacterial test results are given in Table 1 hereafter (MIC in mg/l).

| Structure (SMILES) | MIC [µg/mL] |
| --- | --- |
| O=C1CSc2ccc(N3C[C@@H](CNCCn4c(=O)[nH]c5ccccc5c4=O)OC3=O)nc2N1 [Example 53, 3-(2-{[(R)-2-oxo-3-(3-oxo-3,4-dihydro-2H-pyrido[3,2-b][1,4]thiazin-6-yl)-oxazolidin-5-ylmethyl]-amino}-ethyl)-1H-quinazoline-2,4-dione] | 0.5 (≈ 1.07 µM) |
| Cc1cccc2[nH]c(=O)n(CCC[C@H]3CN(c4ccc5c(n4)NC(=O)CS5)C(=O)O3)c(=O)c12 [Example 8, 5-methyl-3-{3-[(S)-2-oxo-3-(3-oxo-3,4-dihydro-2H-pyrido[3,2-b][1,4]thiazin-6-yl)-oxazolidin-5-yl]-propyl}-1H-quinazoline-2,4-dione] | ≤ 0.016 |
| O=C1CSc2ccc(N3C[C@@H](CCCn4c(=O)[nH]c5cccc(F)c5c4=O)OC3=O)cc2N1 [Example 17, 5-fluoro-3-{3-[(R)-2-oxo-3-(3-oxo-3,4-dihydro-2H-benzo[1,4]thiazin-6-yl)-oxazolidin-5-yl]-propyl}-1H-quinazoline-2,4-dione] | 0.125 (≈ 0.266 µM) |
| Cn1c(=O)n(CCNC[C@H]2CN(c3ccc4c(n3)NC(=O)CS4)C(=O)O2)c(=O)c2cccc(Cl)c21 [Example 62, 8-chloro-1-methyl-3-(2-{[(S)-2-oxo-3-(3-oxo-3,4-dihydro-2H-pyrido[3,2-b][1,4]thiazin-6-yl)-oxazolidin-5-ylmethyl]-amino}-ethyl)-1H-quinazoline-2,4-dione] | ≤ 0.016 |
| C=Cc1ccc2c(=O)n(CCC[C@@H]3CN(c4ccc5c(c4)NC(=O)CS5)C(=O)O3)c(=O)n(C)c2c1 [Example 47, 1-methyl-3-{3-[(R)-2-oxo-3-(3-oxo-3,4-dihydro-2H-benzo[1,4]-thiazin-6-yl)-oxazolidin-5-yl]-propyl}-7-vinyl-1H-quinazoline-2,4-dione] | 0.063 (≈ 0.128 µM) |
| Cn1c(=O)n(CCNC[C@@H]2CN(c3ccc4c(c3)NC(=O)CS4)C(=O)O2)c(=O)c2cccc(Cl)c21 [Example 61, 8-chloro-1-methyl-3-(2-{[(R)-2-oxo-3-(3-oxo-3,4-dihydro-2H-benzo[1,4]thiazin-6-yl)-oxazolidin-5-ylmethyl]-amino}-ethyl)-1H-quinazoline-2,4-dione] | ≤ 0.016 |
| O=C1CSc2ccc(N3C[C@H](CCCn4c(=O)[nH]c5ccccc5c4=O)OC3=O)cc2N1 [Example 1, 3-{3-[(S)-2-oxo-3-(3-oxo-3,4-dihydro-2H-benzo[1,4]thiazin-6-yl)-oxazolidin-5-yl]-propyl}-1H-quinazoline-2,4-dione] | ≤ 0.016 |
| Cn1c(=O)n(C[C@H](O)CC[C@@H]2CN(c3ccc4c(c3)NC(=O)CO4)C(=O)O2)c(=O)c2ccccc21 (racemic) [Example 49, 3-{(RS)-2-hydroxy-4-[(RS)-2-oxo-3-(3-oxo-3,4-dihydro-2H-benzo[1,4]oxazin-6-yl)-oxazolidin-5-yl]-butyl}-1-methyl-1H-quinazoline-2,4-dione] | 1 (≈ 2.08 µM) |
| Cc1cccc2[nH]c(=O)n(CCC[C@H]3CN(c4ccc5c(c4)NC(=O)CS5)C(=O)O3)c(=O)c12 [Example 7, 5-methyl-3-{3-[(S)-2-oxo-3-(3-oxo-3,4-dihydro-2H-benzo[1,4]-thiazin-6-yl)-oxazolidin-5-yl]-propyl}-1H-quinazoline-2,4-dione] | ≤ 0.016 |
| O=C1CSc2ccc(N3C[C@@H](CCCn4c(=O)c5cccc6c5n(c4=O)CCC6)OC3=O)cc2N1 [Example 41, 2-{3-[(R)-2-oxo-3-(3-oxo-3,4-dihydro-2H-benzo[1,4]thiazin-6-yl)-oxazolidin-5-yl]-propyl}-6,7-dihydro-5H-pyrido[3,2,1-ij]quinazoline-1,3-dione] | 0.25 (≈ 0.508 µM) |
| Cc1cccc2c1c(=O)n(CCNC[C@@H]1CN(c3ccc4c(c3)NC(=O)CS4)C(=O)O1)c(=O)n2C [Example 57, 1,5-dimethyl-3-(2-{[(R)-2-oxo-3-(3-oxo-3,4-dihydro-2H-benzo[1,4]thiazin-6-yl)-oxazolidin-5-ylmethyl]-amino}-ethyl)-1H-quinazoline-2,4-dione] | ≤ 0.016 |
| Cn1c(=O)n(CCNC[C@@H]2CN(c3ccc4c(c3)NC(=O)CS4)C(=O)O2)c(=O)c2ccccc21 [Example 56, 1-methyl-3-(2-{[(R)-2-oxo-3-(3-oxo-3,4-dihydro-2H-benzo[1,4]thiazin-6-yl)-oxazolidin-5-ylmethyl]-amino}-ethyl)-1H-quinazoline-2,4-dione] | 0.125 (≈ 0.26 µM) |
| O=C1CSc2ccc(N3C[C@H](CCCn4c(=O)[nH]c5c(Cl)ccc(Cl)c5c4=O)OC3=O)cc2N1 [Example 40, 5,8-dichloro-3-{3-[(S)-2-oxo-3-(3-oxo-3,4-dihydro-2H-benzo[1,4]thiazin-6-yl)-oxazolidin-5-yl]-propyl}-1H-quinazoline-2,4-dione] | ≤ 0.016 |
| O=C1CSc2ccc(N3CC(CCCCn4c(=O)[nH]c5ccccc5c4=O)OC3=O)cc2N1 (racemic) [Example 48, rac-3-{4-[2-oxo-3-(3-oxo-3,4-dihydro-2H-benzo[1,4]thiazin-6-yl)-oxazolidin-5-yl]-butyl}-1H-quinazoline-2,4-dione] | 0.031 (≈ 0.0664 µM) |
| O=C1COc2ccc(N3C[C@@H](CCCn4c(=O)[nH]c5cccc(Cl)c5c4=O)OC3=O)nc2N1 [Example 20, 5-chloro-3-{3-[(R)-2-oxo-3-(3-oxo-3,4-dihydro-2H-pyrido[3,2-b][1,4]oxazin-6-yl)-oxazolidin-5-yl]-propyl}-1H-quinazoline-2,4-dione] | 0.125 (≈ 0.265 µM) |
| Cn1c(=O)n(CCC[C@@H]2CN(c3ccc4c(c3)NC(=O)CS4)C(=O)O2)c(=O)c2ccc(Br)cc21 [Example 46, 7-bromo-1-methyl-3-{3-[(R)-2-oxo-3-(3-oxo-3,4-dihydro-2H-benzo[1,4]thiazin-6-yl)-oxazolidin-5-yl]-propyl}-1H-quinazoline-2,4-dione] | ≤ 0.016 |
| O=C1CSc2ccc(N3C[C@H](CCCn4c(=O)[nH]c5cccc(Cl)c5c4=O)OC3=O)cc2N1 [Example 18, 5-chloro-3-{3-[(S)-2-oxo-3-(3-oxo-3,4-dihydro-2H-benzo[1,4]thiazin-6-yl)-oxazolidin-5-yl]-propyl}-1H-quinazoline-2,4-dione] | ≤ 0.016 |
| Cc1cccc2c1c(=O)n(CCNC[C@H]1CN(c3ccc4c(n3)NC(=O)CS4)C(=O)O1)c(=O)n2C [Example 58, 1,5-dimethyl-3-(2-{[(S)-2-oxo-3-(3-oxo-3,4-dihydro-2H-pyrido[3,2-b][1,4]thiazin-6-yl)-oxazolidin-5-ylmethyl]-amino}-ethyl)-1H-quinazoline-2,4-dione] | ≤ 0.016 |
| Cn1c(=O)n(CCC[C@H]2CN(c3ccc4c(c3)NC(=O)CS4)C(=O)O2)c(=O)c2ccccc21 [Example 3, 1-methyl-3-{3-[(S)-2-oxo-3-(3-oxo-3,4-dihydro-2H-benzo[1,4]-thiazin-6-yl)-oxazolidin-5-yl]-propyl}-1H-quinazoline-2,4-dione] | ≤ 0.016 |
| O=C1CSc2ccc(N3C[C@H](CCCn4c(=O)[nH]c5c(Cl)cccc5c4=O)OC3=O)nc2N1 [Example 22, 8-chloro-3-{3-[(S)-2-oxo-3-(3-oxo-3,4-dihydro-2H-pyrido[3,2-b][1,4]thiazin-6-yl)-oxazolidin-5-yl]-propyl}-1H-quinazoline-2,4-dione] | ≤ 0.016 |
| O=C1CSc2ccc(N3C[C@@H](CNCCn4c(=O)[nH]c5c(Cl)cccc5c4=O)OC3=O)cc2N1 [Example 64, 8-chloro-3-(2-{[(R)-2-oxo-3-(3-oxo-3,4-dihydro-2H-benzo[1,4]thiazin-6-yl)-oxazolidin-5-ylmethyl]-amino}-ethyl)-1H-quinazoline-2,4-dione] | 0.25 (≈ 0.498 µM) |
| O=C1CSc2ccc(N3C[C@H](CCCn4c(=O)c5cccc6c5n(c4=O)CCC6)OC3=O)cc2N1 [Example 44, 2-{3-[(S)-2-oxo-3-(3-oxo-3,4-dihydro-2H-benzo[1,4]thiazin-6-yl)-oxazolidin-5-yl]-propyl}-6,7-dihydro-5H-pyrido[3,2,1-ij]quinazoline-1,3-dione] | ≤ 0.016 |
| COc1ccc2[nH]c(=O)n(CCC[C@@H]3CN(c4ccc5c(c4)NC(=O)CS5)C(=O)O3)c(=O)c2c1 [Example 34, 6-methoxy-3-{3-[(R)-2-oxo-3-(3-oxo-3,4-dihydro-2H-benzo[1,4]-thiazin-6-yl)-oxazolidin-5-yl]-propyl}-1H-quinazoline-2,4-dione] | 0.063 (≈ 0.131 µM) |
| CCCn1c(=O)n(CCC[C@@H]2CN(c3ccc4c(c3)NC(=O)CS4)C(=O)O2)c(=O)c2ccccc21 [Example 4, 3-{3-[(R)-2-oxo-3-(3-oxo-3,4-dihydro-2H-benzo[1,4]-thiazin-6-yl)-oxazolidin-5-yl]-propyl}-1-propyl-1H-quinazoline-2,4-dione] | ≤ 0.25 |
| O=C1CSc2ccc(N3C[C@@H](CCCn4c(=O)[nH]c5cc(F)c(F)cc5c4=O)OC3=O)cc2N1 [Example 38, 6,7-difluoro-3-{3-[(R)-2-oxo-3-(3-oxo-3,4-dihydro-2H-benzo[1,4]thiazin-6-yl)-oxazolidin-5-yl]-propyl}-1H-quinazoline-2,4-dione] | 0.063 (≈ 0.129 µM) |
| O=C1CSc2ccc(N3C[C@@H](CNCCn4c(=O)[nH]c5ccccc5c4=O)OC3=O)cc2N1 [Example 54, 3-(2-{[(R)-2-oxo-3-(3-oxo-3,4-dihydro-2H-benzo[1,4]thiazin-6-yl)-oxazolidin-5-ylmethyl]-amino}-ethyl)-1H-quinazoline-2,4-dione] | 1 (≈ 2.14 µM) |
| O=C1CSc2ccc(N3C[C@@H](CCCn4c(=O)[nH]c5cc(Cl)ccc5c4=O)OC3=O)cc2N1 [Example 27, 7-chloro-3-{3-[(R)-2-oxo-3-(3-oxo-3,4-dihydro-2H-benzo[1,4]-thiazin-6-yl)-oxazolidin-5-yl]-propyl}-1H-quinazoline-2,4-dione] | 0.063 (≈ 0.129 µM) |

Same assay, conditions: microdilution in cation-adjusted Mueller-Hinton Broth

| Structure (SMILES) | MIC for S. aureus 29213 [µg/mL] |
| --- | --- |
| O=C1CSc2ccc(N3C[C@@H](CNCCn4c(=O)c5cccc6c5n(c4=O)CCC6)OC3=O)cc2N1 [Example 66, 2-(2-{[(R)-2-oxo-3-(3-oxo-3,4-dihydro-2H-benzo[1,4]thiazin-6-yl)-oxazolidin-5-ylmethyl]-amino}-ethyl)-6,7-dihydro-5H-pyrido[3,2,1-#]quinazoline-1,3-dione] | 0.031 |
